# Like-named read-outs stand apart in the source and are kept apart here.
# Experiments:
# M. mycetomatis MM55 = assay: IC50 determination, 2-fold dilution series 16 to 0.03125 μM; assay type: cell-based, Madurella mycetomatis; settings: for IC50 / IC90: Madurella mycetomatis
# [1] = test system: ten different M. mycetomatis isolates; parameters: method as in PMID 24945848, PMID 22964246, PMID 31904836; settings: asterisk: determined in previous works ref 19-21; cited from earlier work
# [2] = test system: M. mycetomatis genome strain MM55; assay: CLSI M38-A2 based in vitro susceptibility screening (XTT or resazurin), growth at fixed concentration; assay type: cell-based, Madurella mycetomatis; settings: Madurella mycetomatis
# [3] = test system: Me. romeroi strain CBS128765; assay: CLSI M38-A2 based in vitro susceptibility screening at 25 μM; assay type: cell-based, Medicopsis romeroi; settings: selected if >75% (resazurin) or >80% (XTT) fungal growth inhibited
# [4] = test system: ten different M. mycetomatis isolates; assay: MIC / MIC50 determination (XTT) in ten M. mycetomatis isolates; assay type: cell-based, Madurella mycetomatis; settings: Madurella mycetomatis
# [5] = test system: M. mycetomatis isolate MM55; assay: M. mycetomatis grain infection model in G. mellonella larvae, survival; assay type: in vivo, Galleria mellonella; parameters: In vivo efficacy, Larvae survival %: concentration or dose not given beside the values; settings: for Effect on larvae survival Day 4 (words) / Effect on larvae survival Day 10 (words): 20 μM per larvae, vs infected control; for Effect on larvae survival Day 4 (words): day four
# [6] = test system: F. senegalensis strain CBS132257; assay: CLSI M38-A2 based in vitro susceptibility screening at 25 μM; assay type: cell-based, Falciformispora senegalensis; settings: selected if >75% (resazurin) or >80% (XTT) fungal growth inhibited
# [7] = MM55, Table 2, M. mycetomatis MM55, read-out: IC50
# [8] = MM55, replicate 1, read-out: IC50 1
# [9] = MM55, replicate 1, read-out: IC90 1
# [10] = MM55, replicate 2, read-out: IC50 2
# [11] = MM55, replicate 2, read-out: IC90 2
# [12] = MM55, replicate 3, read-out: IC50 3
# [13] = MM55, replicate 3, read-out: IC90 3
# [14] = 25 uM, mean, read-out: Percentage survival at 25um, 25 uM mean
# [15] = 25 uM, replicate A, read-out: Percentage survival at 25um, 25 um A
# [16] = 25 uM, replicate B, read-out: Percentage survival at 25um, 25 uM B
# [17] = 25 uM, replicate C, read-out: Percentage survival at 25um, 25 uM C
# [18] = mean, read-out: Percentage survival at 100um, 100 uM mean
# [19] = replicate (first column), read-out: Percentage survival at 100um, 100 uM A
# [20] = replicate (second column), read-out: Percentage survival at 100um, 100 uM A
# [21] = replicate (third column), read-out: Percentage survival at 100um, 100 uM A
# [22] = median MIC over ten M. mycetomatis isolates, no asterisk, read-out: MIC50
# [23] = isolate CBS247.48, read-out: MIC CBS247.48
# [24] = isolate MM14, read-out: MIC MM14
# [25] = isolate MM45, read-out: MIC MM45
# [26] = isolate MM55, read-out: MIC MM55
# [27] = isolate ParijsAl1, read-out: MIC ParijsAl1
# [28] = isolate Peru72012, read-out: MIC Peru72012
# [29] = G. mellonella larvae infected with M. mycetomatis
# [30] = MM55, mean, read-out: IC50 mean
smiles,measurement,setting,value
"CC(=O)N1CCN(c2ccc(OCC3COC(Cn4ccnc4)(c4ccc(Cl)cc4Cl)O3)cc2)CC1 (stereo not drawn) [MMV637533, Ketoconazole, reference compound]",Drug static or cidal,M. mycetomatis MM55,Cidal
same,IC50,M. mycetomatis MM55; [7],0.07 µM
same,IC50,M. mycetomatis MM55; [8],< 0.098 µM
same,IC90,M. mycetomatis MM55; [9],0.18 µM
same,IC50,M. mycetomatis MM55; [10],< 0.098 µM
same,IC90,M. mycetomatis MM55; [11],< 0.098 µM
same,IC50,M. mycetomatis MM55; [12],0.38 µM
same,IC90,M. mycetomatis MM55; [13],1.05 µM
same,MIC50,[1],0.13 µM
same,MIC range,[1],0.06 to 1.9 µM
same,activity at 25 µM,[2]; [14],-0.0796%
same,activity at 25 µM,[2]; [15],1.08%
same,activity at 25 µM,[2]; [16],-3.63%
same,activity at 25 µM,[2]; [17],2.31%
same,activity at 100 µM,[2]; [18],5.46%
same,activity at 100 µM,[2]; [19],1.43%
same,activity at 100 µM,[2]; [20],7.48%
same,activity at 100 µM,[2]; [21],7.47%
"COC(=O)Nc1nc2ccccc2[nH]1 [MMV344625, Carbendazim]",Drug static or cidal,M. mycetomatis MM55; M. mycetomatis,Static
same,IC50,M. mycetomatis MM55; [7],1.32 µM
same,IC50,"M. mycetomatis MM55; MM55, mean of replicates, read-out: IC50 mean",1.32 µM
same,IC50,"M. mycetomatis MM55; MM55, replicate 1, read-out: IC50 1 um",2.28 µM
same,IC90,"M. mycetomatis MM55; MM55, replicate 1, read-out: IC90 1 um",4.72 µM
same,IC50,"M. mycetomatis MM55; MM55, replicate 2, read-out: IC50 2 um",0.7 µM
same,IC90,"M. mycetomatis MM55; MM55, replicate 2, read-out: IC90 2 um",1.5 µM
same,IC50,"M. mycetomatis MM55; MM55, replicate 3, read-out: IC50 3 um",0.97 µM
same,IC90,"M. mycetomatis MM55; MM55, replicate 3, read-out: IC90 3 um",> 25 µM
same,Inhibits growth of Medicopsis romeroi at 25 μM,[3],inhibit the growth
same,activity at 25 µM,"[2]; 25 uM, replicate A, M. mycetomatis MM55, read-out: Percentage survival at 25um, 25 um A",1.64%
same,activity at 100 µM,"[2]; mean of three, M. mycetomatis MM55, read-out: Percentage survival at 100um, 100 uM mean",8.48%
same,activity at 100 µM,"[2]; replicate 1, M. mycetomatis MM55, read-out: Percentage survival at 100um, 100 uM A (first replicate column)",0.376%
same,activity at 100 µM,"[2]; replicate 2, M. mycetomatis MM55, read-out: Percentage survival at 100um, 100 uM A (second replicate column)",3.66%
same,activity at 100 µM,"[2]; replicate 3, M. mycetomatis MM55, read-out: Percentage survival at 100um, 100 uM A (third replicate column)",21.4%
same,activity at 25 µM,"[2]; read-out: Percentage survival at 25um, 25 uM B",6.23%
same,activity at 25 µM,"[2]; read-out: Percentage survival at 25um, 25 uM C",2.7%
same,activity at 25 µM,"[2]; read-out: Percentage survival at 25um, 25 uM mean",3.52%
same,MIC50,"[4]; Table 3 and Fig 5, benzimidazole carbamates, M. mycetomatis, read-out: MIC50",0.5 µM
same,MIC50,[4]; [22],0.5 µM
same,MIC50,"[4]; over the tested M. mycetomatis isolates, read-out: MIC50 mean",0.5 µM
same,MIC,[4]; [23],0.5 µM
same,MIC,[4]; [24],< 0.0312 µM
same,MIC,[4]; [25],1 µM
same,MIC,[4]; [26],0.5 µM
same,MIC,"[4]; isolate P1, read-out: MIC P1",0.5 µM
same,MIC,[4]; [27],1 µM
same,MIC,[4]; [28],1 µM
same,MIC,"[4]; isolate So1, read-out: MIC So1",0.5 µM
same,MIC,"[4]; isolate i1, read-out: MIC i1",0.5 µM
same,MIC,"[4]; isolate i11, read-out: MIC i11",2 µM
same,Effect on larvae survival Day 4 (words),[5],Increase survival
same,Effect on larvae survival Day 4 (words),[5]; listed as carbendazim,significantly increase larvae survival
same,Effect on larvae survival Day 10 (words),[5]; day ten,No
same,"In vivo efficacy, Enhanced survival compared to control?",[5]; [29],no
same,"In vivo efficacy, Larvae survival %",[5]; [29],6.7%
"C[C@@H](c1nc(-c2ccc(C#N)cc2)cs1)[C@](O)(Cn1cncn1)c1ccc(F)cc1F [MMV1634362, Ravuconazole]",Drug static or cidal,M. mycetomatis MM55,Cidal
same,IC50,M. mycetomatis MM55; [7],0.01 µM
same,IC50,M. mycetomatis MM55; [30],< 0.098 µM
same,IC50,M. mycetomatis MM55; [8],< 0.098 µM
same,IC90,M. mycetomatis MM55; [9],< 0.098 µM
same,IC50,M. mycetomatis MM55; [10],1.04 µM
same,IC90,M. mycetomatis MM55; [11],4 µM
same,IC50,M. mycetomatis MM55; [12],< 0.098 µM
same,IC90,M. mycetomatis MM55; [13],2.75 µM
same,Inhibits growth of Medicopsis romeroi at 25 μM,[3],neither F. senegalensis nor Me. romeroi growth were inhibited
same,Inhibits growth of Falciformispora senegalensis at 25 μM,[6],neither F. senegalensis nor Me. romeroi growth were inhibited
same,MIC50,[1],0.01 µM
same,MIC range,[1],0.004 to 0.06 µM
same,activity at 25 µM,[2]; [14],-1.1%
same,activity at 25 µM,[2]; [15],-3.16%
same,activity at 25 µM,[2]; [16],-3.36%
same,activity at 25 µM,[2]; [17],3.22%
same,activity at 100 µM,[2]; [18],4.1%
same,activity at 100 µM,[2]; [19],-3.18%
same,activity at 100 µM,[2]; [20],5.51%
same,activity at 100 µM,[2]; [21],9.97%
same,Larvae survival rate on day ten,"[5]; 20 μM per larvae at 4, 28, 52 h after infection, day ten",26.7%
same,Effect on larvae survival Day 4 (words),[5],prolonged larvae survival
same,Effect on larvae survival Day 10 (words),[5]; day ten,able to prolong larvae survival
same,"In vivo efficacy, Enhanced survival compared to control?",[5]; in vivo,yes *
same,"In vivo efficacy, Larvae survival %",[5]; in vivo,26.7%
"CNCC(=O)OCc1cccnc1N(C)C(=O)OC(C)[n+]1cnn(C[C@](O)(c2cc(F)ccc2F)[C@@H](C)c2nc(-c3ccc(C#N)cc3)cs2)c1 (stereo partly drawn) [MMV1634494, Isavuconazonium, reference compound]",Drug static or cidal,M. mycetomatis MM55,Cidal
same,IC50,M. mycetomatis MM55; [7],0.04 µM
same,IC50,M. mycetomatis MM55; [30],0.63 µM
same,IC90,"M. mycetomatis MM55; MM55, read-out: IC90 mean",1.08 µM
same,IC50,M. mycetomatis MM55; [8],0.35 µM
same,IC90,M. mycetomatis MM55; [9],0.68 µM
same,IC50,M. mycetomatis MM55; [10],0.75 µM
same,IC90,M. mycetomatis MM55; [11],1.3 µM
same,IC50,M. mycetomatis MM55; [12],0.79 µM
same,IC90,M. mycetomatis MM55; [13],1.26 µM
same,MIC50,[1],0.04 µM
same,MIC range,[1],<0.02 to 0.17 µM
same,activity at 25 µM,[2]; [14],-2.78%
same,activity at 25 µM,[2]; [15],-3.3%
same,activity at 25 µM,[2]; [16],-6.46%
same,activity at 25 µM,[2]; [17],1.41%
same,activity at 100 µM,[2]; [18],7.96%
same,activity at 100 µM,[2]; [19],2.09%
same,activity at 100 µM,[2]; [20],14.1%
same,activity at 100 µM,[2]; [21],7.75%
"O[C@@](Cn1cnnn1)(c1ccc(F)cc1F)C(F)(F)c1ccc(-c2ccc(OCC(F)(F)F)cc2)cn1 [MMV1634386, Oteseconazole, reference compound]",Drug static or cidal,M. mycetomatis MM55,Cidal
same,IC50,M. mycetomatis MM55; [7],2.66 µM
same,IC50,M. mycetomatis MM55; [30],2.66 µM
same,IC90,"M. mycetomatis MM55; MM55, read-out: IC90 mean",5.17 µM
same,IC50,M. mycetomatis MM55; [8],2.15 µM
same,IC90,M. mycetomatis MM55; [9],5 µM
same,IC50,M. mycetomatis MM55; [10],2.78 µM
same,IC90,M. mycetomatis MM55; [11],5 µM
same,IC50,M. mycetomatis MM55; [12],3.06 µM
same,IC90,M. mycetomatis MM55; [13],5.5 µM
same,activity at 25 µM,[2]; [14],-1.26%
same,activity at 25 µM,[2]; [15],-1.75%
same,activity at 25 µM,[2]; [16],-2.55%
same,activity at 25 µM,[2]; [17],0.501%
same,activity at 100 µM,[2]; [18],7.07%
same,activity at 100 µM,[2]; [19],-1.99%
same,activity at 100 µM,[2]; [20],9.06%
same,activity at 100 µM,[2]; [21],14.2%
same,MIC50,[4]; [22],1 µM
same,MIC50,"[4]; over the isolates tested, read-out: MIC50 mean",1 µM
same,MIC,[4]; [23],16 µM
same,MIC,[4]; [24],1 µM
same,MIC,[4]; [25],1 µM
same,MIC,[4]; [26],4 µM
same,MIC,"[4]; isolate P1, read-out: MIC P1",2 µM
same,MIC,[4]; [27],2 µM
same,MIC,[4]; [28],4 µM
same,MIC,"[4]; isolate So1, read-out: MIC So1",1 µM
same,MIC,"[4]; isolate i1, read-out: MIC i1",0.25 µM
same,MIC,"[4]; isolate i11, read-out: MIC i11",8 µM
same,"In vivo efficacy, Enhanced survival compared to control?",[5]; in vivo,no
same,"In vivo efficacy, Larvae survival %",[5]; in vivo,11.1%

# Source: PMC8815882, “Screening the pandemic response box identified benzimidazole carbamates, Olorofim and ravuconazole as promising drug candidates for the treatment of eumycetoma” (PLoS Neglected Tropical Diseases, 2022)
